Data taken from ChEMBL document CHEMBL5042471, “Development and Application of Subtype-Selective Fluorescent Antagonists for the Study of the Human Adenosine A1 Receptor in Living Cells” (J Med Chem, 2021).
Activity calls are given as the source filed them. The rule behind the calls is not given here.

Key:
[1] = target: T1, Adenosine receptor A1 (Homo sapiens, UniProt P30542); assay: Displacement of [3H]DPCPX from human A1 adenosine receptor expressed in Flp-In-CHO cells by radioligand competitive binding assay; assay type: cell-based
T1 sequence (P30542 whole entry): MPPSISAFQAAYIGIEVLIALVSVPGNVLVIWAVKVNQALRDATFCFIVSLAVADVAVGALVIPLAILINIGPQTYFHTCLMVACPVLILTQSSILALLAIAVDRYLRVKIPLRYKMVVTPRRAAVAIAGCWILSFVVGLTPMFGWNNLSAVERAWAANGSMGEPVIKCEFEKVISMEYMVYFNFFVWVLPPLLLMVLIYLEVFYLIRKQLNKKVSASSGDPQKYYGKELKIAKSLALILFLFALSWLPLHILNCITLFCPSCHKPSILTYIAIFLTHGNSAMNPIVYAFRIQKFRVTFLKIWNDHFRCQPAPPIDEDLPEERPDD

[2] = target: T2, Adenosine receptor A1 (Homo sapiens) (UniProt P30542); assay: Binding affinity to SNAP-tagged-human A1 adenosine receptor expressed in HEK293 cells at 50 nM after 30 mins in presence of SLV320 by confocal microscopy method; assay type: cell-based
T2 sequence (whole entry): T1 sequence (P30542 whole entry)

[3] = target: T1, Adenosine receptor A1; assay: Binding affinity to NLuc human A1 adenosine receptor expressed in HEK293-A cells in presence of 1 uM SLV320 by NanoBRET binding assay; assay type: cell-based
[4] = target: T2, Adenosine receptor A1 (Homo sapiens); assay: Binding affinity to NLuc human A1 adenosine receptor expressed in HEK293-A cells assessed as maximal binding capacity in presence of 1 uM SLV320 by NanoBRET binding assay; assay type: cell-based; details: filed as antagonist
[5] = target: T3, Adenosine receptor A2a (Homo sapiens, UniProt P29274); assay: Binding affinity to NLuc human A2A adenosine receptor expressed in HEK293-A cells in presence of 1 uM ZM241385 by NanoBRET binding assay; assay type: cell-based
T3 sequence (P29274 whole entry): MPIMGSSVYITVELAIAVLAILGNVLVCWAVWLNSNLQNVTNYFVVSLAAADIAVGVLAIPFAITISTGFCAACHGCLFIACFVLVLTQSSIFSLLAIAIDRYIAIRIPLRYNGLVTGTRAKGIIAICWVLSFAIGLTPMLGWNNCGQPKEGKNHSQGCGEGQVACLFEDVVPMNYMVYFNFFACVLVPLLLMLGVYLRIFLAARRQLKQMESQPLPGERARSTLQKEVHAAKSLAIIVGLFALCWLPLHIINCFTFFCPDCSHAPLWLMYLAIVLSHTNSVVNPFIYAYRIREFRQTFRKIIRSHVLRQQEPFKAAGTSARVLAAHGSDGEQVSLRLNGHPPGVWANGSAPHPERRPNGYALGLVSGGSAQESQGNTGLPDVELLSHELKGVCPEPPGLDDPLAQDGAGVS

[6] = target: T4, Adenosine receptor A2b (Homo sapiens, UniProt P29275); assay: Binding affinity to NLuc human A2B adenosine receptor expressed in HEK293-A cells in presence of 1 uM PSB603 by NanoBRET binding assay; assay type: cell-based
T4 sequence (P29275 whole entry): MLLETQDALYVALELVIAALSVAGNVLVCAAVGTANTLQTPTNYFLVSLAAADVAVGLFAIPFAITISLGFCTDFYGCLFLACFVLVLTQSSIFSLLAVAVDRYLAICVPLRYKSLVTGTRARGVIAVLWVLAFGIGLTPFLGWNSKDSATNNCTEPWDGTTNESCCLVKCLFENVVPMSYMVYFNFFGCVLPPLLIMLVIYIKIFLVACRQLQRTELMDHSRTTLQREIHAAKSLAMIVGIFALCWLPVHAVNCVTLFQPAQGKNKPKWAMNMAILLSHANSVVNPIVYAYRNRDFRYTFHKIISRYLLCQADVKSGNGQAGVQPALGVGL

[7] = target: T5, Adenosine receptor A3 (Homo sapiens, UniProt P0DMS8); assay: Binding affinity to NLuc human A3 adenosine receptor expressed in HEK293-A cells in presence of 1 uM MRS1220 by NanoBRET binding assay; assay type: cell-based
T5 sequence (P0DMS8 whole entry): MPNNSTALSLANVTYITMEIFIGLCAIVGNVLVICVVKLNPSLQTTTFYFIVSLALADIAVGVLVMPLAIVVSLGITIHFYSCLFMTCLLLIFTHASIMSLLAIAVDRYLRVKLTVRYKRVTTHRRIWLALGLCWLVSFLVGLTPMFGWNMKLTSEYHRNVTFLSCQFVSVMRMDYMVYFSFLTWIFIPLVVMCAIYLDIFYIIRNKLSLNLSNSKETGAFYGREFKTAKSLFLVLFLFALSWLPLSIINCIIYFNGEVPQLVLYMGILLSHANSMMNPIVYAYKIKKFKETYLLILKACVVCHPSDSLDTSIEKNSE

[8] = target: T2, Adenosine receptor A1 (Homo sapiens); assay: Antagonist activity at human A1 adenosine receptor expressed in Flp-In-CHO cells assessed as reduction in NECA-mediated inhibition of forskolin stimulated cAMP accumulation by cAMP assay; assay type: functional, cell-based; details: filed as antagonist
[9] = target: T2, Adenosine receptor A1 (Homo sapiens); assay: Binding affinity to NanoLuc-human A1 adenosine receptor expressed in HEK293-A cells assessed as binding constant (kon) by NanoBRET competitive binding assay; assay type: cell-based; details: filed as antagonist
[10] = target: T2, Adenosine receptor A1 (Homo sapiens); assay: Binding affinity to NanoLuc-human A1 adenosine receptor expressed in HEK293-A cells assessed as binding constant (koff) by NanoBRET competitive binding assay; assay type: cell-based; details: filed as antagonist
[11] = target: T1, Adenosine receptor A1; assay: Binding affinity to NanoLuc-human A1 adenosine receptor expressed in HEK293-A cells assessed as kinetic dissociation constant by NanoBRET competitive binding assay; assay type: cell-based
[12] = target: T1, Adenosine receptor A1; assay: Binding affinity to NanoLuc human A1 adenosine receptor expressed in HEK293-A cells in prescence of SLV320 by NanoBRET competitive binding assay; assay type: cell-based
[13] = target: T1, Adenosine receptor A1; assay: Binding affinity to NanoLuc human A1 adenosine receptor expressed in HEK293-A cells in prescence of DPCPX by NanoBRET competitive binding assay; assay type: cell-based
[14] = target: T1, Adenosine receptor A1; assay: Binding affinity to NanoLuc human A1 adenosine receptor expressed in HEK293-A cells in prescence of NECA by NanoBRET competitive binding assay; assay type: cell-based
[15] = target: T2, Adenosine receptor A1 (Homo sapiens); assay: Binding affinity to SNAP-tagged-human A1 adenosine receptor expressed in HEK293 cells assessed as red fluorescent spot in plasma membrane pre-incubated with 10 uM SLV320 by microscopy based TIRF assay; assay type: cell membranes
[16] = target: T1, Adenosine receptor A1; assay: biochemical
Description: Displacement of [3H]DPCPX from human A1 adenosine receptor expressed in CHO-K1 cells by radioligand binding assay

[17] = target: T3, Adenosine receptor A2a; assay: Binding affinity to NLuc human A2A adenosine receptor expressed in HEK293-A cells assessed as maximal binding capacity in presence of 1 uM ZM241385 by NanoBRET binding assay; assay type: cell-based; details: filed as antagonist
[18] = target: T6, Adenosine receptor A2b (Homo sapiens) (UniProt P29275); assay: Binding affinity to NLuc human A2B adenosine receptor expressed in HEK293-A cells assessed as maximal binding capacity in presence of 1 uM PSB603 by NanoBRET binding assay; assay type: cell-based; details: filed as antagonist
T6 sequence (whole entry): T4 sequence (P29275 whole entry)

[19] = target: T7, Adenosine receptor A3 (Homo sapiens) (UniProt P0DMS8); assay: Binding affinity to NLuc human A3 adenosine receptor expressed in HEK293-A cells assessed as maximal binding capacity in presence of 1 uM MRS1220 by NanoBRET binding assay; assay type: cell-based; details: filed as antagonist
T7 sequence (whole entry): T5 sequence (P0DMS8 whole entry)

[20] = target: T2, Adenosine receptor A1 (Homo sapiens); assay: Binding affinity to SNAP-tagged-human A1 adenosine receptor expressed in HEK293 cells at 5 nM after 30 mins in presence of SLV320 by confocal microscopy method; assay type: cell-based
[21] = target: T1, Adenosine receptor A1; assay: Binding affinity to N-terminal NLuc tagged human A1 adenosine receptor expressed in Flp-In-CHO cells by competitive binding assay; assay type: cell-based
[22] = target: T8, Adenosine receptor A1 (Rattus norvegicus, UniProt P25099); assay: Binding affinity to N-terminal NLuc tagged rat A1 adenosine receptor expressed in Flp-In-CHO cells by competitive binding assay; assay type: cell-based
T8 sequence (P25099 whole entry): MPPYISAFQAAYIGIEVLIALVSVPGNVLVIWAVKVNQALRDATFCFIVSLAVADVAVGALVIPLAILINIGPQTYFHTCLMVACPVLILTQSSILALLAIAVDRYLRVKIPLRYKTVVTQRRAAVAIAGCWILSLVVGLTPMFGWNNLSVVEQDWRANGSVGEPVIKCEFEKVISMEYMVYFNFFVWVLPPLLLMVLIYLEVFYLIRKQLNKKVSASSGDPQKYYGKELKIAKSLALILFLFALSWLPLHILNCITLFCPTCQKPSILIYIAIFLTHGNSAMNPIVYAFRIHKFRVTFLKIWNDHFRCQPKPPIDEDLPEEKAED

[23] = target: T5, Adenosine receptor A3; assay: Agonist activity at A3 adenosine receptor (unknown origin); assay type: functional

In the case of CCCn1c(=O)c2[nH]c(C34CCC(CCC(=O)NCCNC(=O)CCNC(=O)CCNC(=O)OC(C)(C)C)(CC3)CC4)nc2n(CCC)c1=O, the Ki [1] is reported as 7.76 nM.
Compound CCCn1c(=O)c2[nH]c(C34CCC(C(=O)NCCNC(=O)CCNC(=O)CCNC(=O)OC(C)(C)C)(CC3)CC4)nc2n(CCC)c1=O has a Ki [1] of 4.37 nM.
CCCn1c(=O)c2[nH]c(C34CCC(CCC(=O)NCCNC(=O)COCCNC(=O)OC(C)(C)C)(CC3)CC4)nc2n(CCC)c1=O gave a Ki [1] of 14.8 nM.
In the case of CCCn1c(=O)c2[nH]c(C34CCC(C(=O)NCCNC(=O)CCNC(=O)CCNC(=O)CCCCC[N+]5=C(/C=C/C=C/C=C6/N(C)c7ccc(S(=O)(=O)O)cc7C6(C)C)C(C)(C)c6cc(S(=O)(=O)[O-])ccc65)(CC3)CC4)nc2n(CCC)c1=O, the Activity [2] is reported as “inactive”, the Ki [1] is reported as 200 nM and the Kd [3] is reported as 44.7 nM. It also gave a Bmax [4] of 0.03, a Kd [5] of over 1000 nM and a Kd [6] of over 1000 nM. For the same compound, the Kd [7] was over 1000 nM, the pKb [8] was 7.12 and the K [9] was 0.86 10^6/M/min. It also gave a K [10] of 0.117 min⁻¹, a Kd [11] of 138 nM and a Ki [12] of 0.708 nM. For the same compound, the Ki [13] was 7.41 nM, the Ki [14] was 398 nM and the Activity [15] was “inactive”.
Compound O[C@H]1CC[C@H](Nc2nc(-c3ccccc3)nc3[nH]ccc23)CC1 has a Ki [1] of 1.7 nM and a Ki [16] of 1 nM.
Compound CCCn1c(=O)c2[nH]c(C34CCC(C(=O)NCCNC(=O)CCNC(=O)CCNC(=O)CCCCCNC(=O)COc5ccc(/C=C/C6=[N+]7C(=Cc8ccc(-c9cccs9)n8[B-]7(F)F)C=C6)cc5)(CC3)CC4)nc2n(CCC)c1=O has a Ki [1] of 0.288 nM, a Kd [3] of 1.17 nM and a Bmax [4] of 0.018. For the same compound, the Kd [5] was 28.2 nM, the Bmax [17] was 0.035 and the Kd [6] was 7.76 nM. It also gave a Bmax [18] of 0.016, a Kd [7] of 135 nM and a Bmax [19] of 0.012. The pKb [8] was 9.75, the K [9] was 17.9 10^6/M/min and the K [10] was 0.054 min⁻¹. For the same compound, the Kd [11] was 3.09 nM and the Activity [20] was “inactive”.
With CCCn1c(=O)c2[nH]c(C34CCC(C(=O)NCCCNC(=O)CCNC(=O)CCNC(=O)OC(C)(C)C)(CC3)CC4)nc2n(CCC)c1=O the Ki [1] was 12.9 nM.
CCCn1c(=O)c2[nH]c(C34CC5CC(CC(C5)C3)C4)nc2n(CCCNC(=O)c2ccc(C(=O)NCCNC(=O)CCCCC[N+]3=C(/C=C/C=C/C=C4/N(C)c5ccc(S(=O)(=O)O)cc5C4(C)C)C(C)(C)c4cc(S(=O)(=O)[O-])ccc43)cc2)c1=O showed a Ki [1] of over 10000 nM.
Work on CCCn1c(=O)c2[nH]c(-c3ccc(OCC(=O)NCCNC(=O)CCNC(=O)CCCCNC(=O)CCCCNC(=O)COc4ccc(/C=C/C5=[N+]6C(=Cc7ccc(-c8cccs8)n7[B-]6(F)F)C=C5)cc4)cc3)nc2n(CCC)c1=O yielded a Kd [21] of 33.9 nM and a Kd [22] of 35.5 nM.
For CCNC(=O)[C@H]1O[C@@H](n2cnc3c(NCCCCNC(=O)CNC(=O)[C@@H](C)NC(=O)[C@@H](C)NC(=O)CCCCCNC(=O)COc4ccc(/C=C/C5=[N+]6C(=Cc7ccc(-c8cccs8)n7[B-]6(F)F)C=C5)cc4)ncnc32)[C@H](O)[C@@H]1O, the EC50 [23] was 3.31 nM.
